In patent publication US6852687B2, “Method for inhibiting apoptosis” (Sucampo AG, priority 2001, dated 2005):

Tests used:
[1] = tested on: Conjunctival epithelial cell line CCL-20.2; test: DNA fragmentation (Cell Death Detection ELISAPLUS); format: cell-based; settings: Example 1; albumin 1 mg/ml in serum-free medium 199, 24 hours, n=4; measured at 405 nm; control without albumin 0.111 ± 0.018
Method: (§1) Conjunctival epithelial cell line CCL-20.2 (obtained from American Type Culture Collection) was incubated in serum-containing medium 199 (Gibco) until 60-70% of confluent. The cells were washed with a serum-free medium and were resuspended in serum-free medium 199 containing albumin 1 mg/ml or serum-free medium 199 containing no albumin. The cells were then incubated for 24 hours and collected.
DNA fragmentation was determined with the Cell Death Detection ELISAPLUS (Roche Diagnostics Corporation, Basel, Switzerland). 2×10^4 cells were lysed with 0.1 ml of buffering solution and centrifuged to collect the supernatant. The obtained supernatant as well as positive and background controls, each in the amount of 20 μl, was respectively added to a plate coated with streptavidin. After adding an immunologic reagent (incubation buffer: antihistone-biotin: anti-DNA-POD=18:1:1) 80 μl to each plate, it was coated with a film and shaken at 300 rpm for 2 hours at room temperature. Then the plate was washed with incubation buffer 250-300 μl for 3 times. After adding substrate (ABTS) solution 100 μl to the plate, it was shaken at 250 rpm for 10-20 minutes at room temperature. The measurement was 405 nm (reference wavelength 492 nm)(n=4).

[2] = tested on: Conjunctival epithelial cell line CCL-20.2; test: Caspase-3 activity of conjunctival epithelial cells incubated in serum-free medium (Z-DEVD-AFC fluorescence); format: cell-based; settings: for caspase-3 activity compared with the control group: serum-free, 24 hours, n=3
Method: as §1
The caspase-3 activities of the collected cells were determined. The cells were lysed in a buffer solution (50 mM HEPES, 1 mM dithiothreitol and 0.1 mM EDTA (pH7.4)) containing 0.1% CHAPS (3-[(3-cholamidopropyl) dimethylammonio]-2-hydroxy-1-propanesulfonic acid) and were centrifuged to collect the supernatant. The caspase activity in the supernatant was determined with 0.1 mM fluorescence substrate (Z-DEVD-AFC) by means of fluorescence intensity measurement(em:505 nm, ex:400 nm) (n=4).
Conjunctival epithelial cell line CCL-20.2 (obtained from American Type Culture Collection) was incubated in serum-containing medium 199 (Gibco) until 70-80% of confluent. The cells were washed with serum-free medium and resuspended in serum-free medium 199 containing albumin 3 mg/ml; albumin 3 mg/ml+EGF10 ng/ml; albumin 3 mg/ml+vitamin A 0.1 μg/ml; or albumin 3 mg/ml+EGF10 ng/ml+vitamin A 0.1 μg/ml. […]
The caspase-3 activities of the collected cells were measured. […] The caspase activity in the supernatant was determined with 0.1 mM fluorescence substrate (Z-DEVD-AFC) by means of fluorescence intensity measurement(em:505 nm, ex:400 nm) (n=3). […]
The caspase-3 activities of the collected cells were measured. […] The caspase activity in the supernatant was determined with 0.1 mM fluorescence substrate (Z-DEVD-AFC) by means of fluorescence intensity measurement (em:505 nm, ex:400 nm) (n=3). […]
The caspase-3 activities of the collected cells were measured. […] The caspase activity in the supernatant was determined with 0.1 mM fluorescence substrate (Z-DEVD-AFC) by means of fluorescence intensity measurement (em: 505 nm, ex: 400 nm) (n=3).

albumin
DNA fragmentation mean ± S.E. [1]: 0.096 ± 0.047 | Caspase-3 activity mean ± S.E. ([2]; Example 1, albumin 1 mg/ml in serum-free medium 199, 24 hours, n=4, control without albumin 0.744 ± 0.246): 0.510 ± 0.191 n mol/hr/mg protein | caspase-3 activity compared with the control group ([2]; Example 2, FIG. 1, albumin 3 mg/ml, EGF 10 ng/ml, vitamin A 0.1 μg/ml): significantly lower | caspase-3 activity compared with the control group ([2]; Example 3, FIG. 2, albumin 1 mg/ml, TGFα 10 ng/ml, TGFβ 10 ng/ml): significantly lower
